Results taken from patent US20260283966A1, “PROTEIN PARTICLES AND METHODS OF MAKING AND USING THE SAME” (Dairy Management Inc., priority 2023, published 2026).

Experiment: ABTS radical scavenging capacity
Assay type: biochemical
Conditions: 0.05 mg mL^−1, all treatments
Protocol: ABTS radical scavenging capacity was measured according to the previously published protocol with some modifications (Dong et al., 2016). The modifications are as follow: samples were dissolved in phosphate buffer (pH 7.4) to a concentration of 0.05 mg mL^−1. Next, a 200 μl aliquot of the sample was mixed with 20 μl of the ABTS working solution and the mixture was stored in dark for 20 min at room temperature (~25° C.).

N[C@@H](Cc1c[nH]c2ccccc12)C(=O)O [Trp, L-Tryptophan]
relative ABTS radical scavenging capacity: strong relative ABTS radical scavenging capacity and was not influenced by treatments
